The record followed here is PMC9694965, “Design of 4-Substituted Sulfonamidobenzoic Acid Derivatives Targeting Coxsackievirus B3” (Life, 2022).

In series [1] the test system is CVB3 Nancy. The series is described as follows: Cytoprotection assay (MTT) in Vero cells infected with CVB3 Nancy. The conditions noted are these: for EC50: Enterovirus B, Vero cells infected with CVB3 Nancy at m.o.i. 0.001, 72 h, MTT, read-out: EC50 (50% cytoprotective concentration); for SI (selectivity index, ratio CC50/IC50): cytoprotection assay, CC50 72 h / EC50. In kind it is cell-based, Coxsackievirus B3. The procedure:
(§1) Vero cells were seeded in 96-well plates in 24 h before the assay. On the assay day, the cells were washed with saline and tested compounds in appropriate concentrations (300–3 μg/mL) in MEM without FBS were added to cells. No compounds were added to virus control wells. The plates were incubated for 1 h at 37 °C at 5% CO2. The cells were then infected with CVB3 Nancy (m.o.i range of 1–0.001) and incubated for 72 h at 37 °C at 5% CO2. No virus was added to the cytotoxicity control wells. Cell viability was then assessed using an MTT test with the following procedure. The cells were washed with saline, and a solution of 3-(4,5-dimethylthiazolyl-2) 2,5-diphenyltetrazolium bromide (ICN Biochemicals Inc., Aurora, OH, USA) ([…]) in MEM was added to the wells (100 µL per well). After 2 h of incubation at 37 °C in 5% CO2, the supernatant from wells was discarded, and the formazan residue was dissolved in DMSO (100 µL per well). The optical density of cells was then measured on a Multiskan multifunctional reader (Thermo Fisher Scientific, Shanghai, China) at a wavelength of 540 nm.
The cytoprotective activity of compounds was considered to be their ability to increase the values of OD compared to control wells (using only a virus, without drugs). Based on the results obtained, the values of IC50, i.e., the concentration of compounds that result in 50% cells protection were calculated for m.o.i. 0.001 using GraphPad Prism 6.01 software.

The nature of series [2]: Cytotoxicity assay (MTT) in Vero cells. In kind it is cell-based. The conditions noted are these: African green monkey; for CC50 at 72 h: 72 h incubation with the compound only; for CC50 at 24 h: 24 h incubation with the compound only. The procedure: as §1
(§2) The microtetrazolium test (MTT) was used to study the cytotoxicity of the compounds. The permissive cell line Vero was seeded in 96-well plates in Eagles minimal essential medium (MEM) supplemented with 10% FBS. After 24 h, the media were removed, and the wells were washed with saline. Compounds were dissolved in DMSO, and a series of two-fold dilutions of each compound in MEM without FBS were prepared and added to the cells in triplicates. […] The MTT was then performed as described above. Next, the optical density of cells was measured on a Multiskan multifunctional reader (Thermo Fisher Scientific, Shanghai, China) at a wavelength of 540 nm and plotted against the concentration of the compounds to generate the dose–response curve. The 50% cytotoxic dose (CC50) of each compound (i.e., the compound concentration that causes the death of 50% of cells in a culture, or decreases the optical density twice, as compared to the control wells) was calculated using a four-parameter logistic nonlinear regression model (GraphPad Prism 6.01).

Another series relates to Vero cells. The series is described as follows: Cytotoxicity assay (MTT) in Vero cells. In kind it is cell-based. The conditions noted are these: incubation with the compound only. The procedure: as §1, §2
The test system of series [3] is Coxsackievirus B3 (Nancy). The series is described as follows: Viral yield reduction assay in Vero cells. In kind it is cell-based. The conditions noted are these: for IC50: Enterovirus B, B3 / CVB3, viral yield reduction, Vero cells, CVB3 Nancy at m.o.i. 0.01, 24 h, read-out: IC50 (50% virus-inhibiting concentration); for SI (selectivity index, ratio CC50/IC50): viral yield reduction assay, CC50 24 h / IC50. As to the method: Coxsackievirus B3 (CVB3, strain Nancy) was obtained from the collection of viruses of the Pasteur Institute (St. Petersburg, Russia). The permissive cell line Vero (ATCC #CCL-81) was used in the study. Infectious titers (in a 50%-tissue culture infection dose, TCID50) were determined in Vero cells for CVB3 by endpoint dilution assay using the following procedure. Permissive cells were seeded into 96-wells plates in Eagles minimal essential medium (MEM) supplemented with 5% fetal bovine serum (FBS). After 24 h, the medium was aspirated, the wells were washed with saline, fresh MEM without FBS was added to the wells and the cells were infected with serial tenfold dilutions of virus stocks (100 µL per well, 4 wells for each dilution). The plates were incubated at +37 °C in 5% CO2 and observed daily for cytopathic effect (CPE). After 72 h the viral titer was calculated in TCID50 using the method of Spearmen-Carber.
The antiviral activity of the compounds was evaluated using viral yield reduction assay. The respective permissive cell line Vero was seeded in MEM supplemented with 5% FBS in 24-well plates. When the cell confluence reached 100%, the compounds tested were dissolved in DMSO, and a series of three-fold dilutions of each compound in MEM without FBS was added to the cells, and incubated at 37 °C in 5% CO2. After 1 h, the media were discarded; equal volumes of fresh serial dilutions of each compound and viral suspension in MEM without FBS at […] were added. In control wells, only MEM without FBS was added. No compounds were added in the virus control wells. The plates were incubated at 4 °C for 1 h. The unbound virus was then washed away and, again, three-fold dilutions of each compound (the final concentration 50–0.6 µg/mL) in MEM without FBS were added to the wells. After 24 h of incubation at 37 °C in 5% CO2, the infectious titer of viral progeny (in TCID50) for each compound concentration, cell control, and virus control wells were determined in permissive cell lines by endpoint dilution assay as described above.
The titer of virus progeny was plotted against log concentration of the compounds tested to generate the dose–response curve. The 50% inhibition concentration (IC50) of each compound tested (i.e., the compound concentration that decreases the infectious viral progeny titer twice, as compared to the control wells) was calculated using a four-parameter logistic nonlinear regression model (GraphPad Prism 6.01).

Series [4] has as its system CVB3 Nancy. The series is described as follows: Thermostability assay (capsid binding, heat inactivation of virus). Also noted: species or system Coxsackievirus B3. The settings on record: pre-incubation 30 min at 37 °C, thermal gradient 37-55 °C for 2 min. The procedure:
CVB3 Nancy was pre-incubated with the compounds tested or an equal volume of MEM (virus control) for 30 min at +37 °C in sterile thin-walled 200 μL PCR-tubes (7 tubes per each treatment condition) in BioRad CFX PCR-machine. The thermal gradient of 37–55 °C for 2 min was then applied, followed by rapid cooling to 4 °C. Subsequently, the infectious virus load at each thermal condition for each compound tested was quantified by end-point dilution assay.

SMILES strings stand for the structures. Where only a bound is given, the exact number is not on record here.

Turning to `CCOC(=O)c1ccc(NS(=O)(=O)c2ccc(N3C(=O)c4ccccc4C3=O)cc2)cc1` [Compound 2b, Ethyl 4-(4-(1,3-dioxoisoindolin-2-yl)phenylsulfonamido)benzoate], in the series on CVB3 Nancy [1], the EC50 is > 444 µM and the “SI (selectivity index, ratio CC50/IC50)” value is given as <1. This compound also returned a CC50 at 72 h in series [2] of 40 ± 4.12 µM.
The compound `NC(=O)c1ccc(NS(=O)(=O)c2ccc(N3C(=O)c4ccccc4C3=O)cc2)cc1` [Compound 2c, 4-(4-(1,3-Dioxoisoindolin-2-yl)phenylsulfonamido)benzamide] displayed a melting point of 240 to 242 °C. In addition, in the series on CVB3 Nancy [1], the EC50 is > 475 µM and the “SI (selectivity index, ratio CC50/IC50)” value is on record as <1. The same compound showed a CC50 at 72 h in series [2] of 472 ± 38.2 µM.
In turn, `N#Cc1ccc(NS(=O)(=O)c2ccc(N3C(=O)c4ccccc4C3=O)cc2)cc1` [Compound 2d, N-(4-Cyanophenyl)-4-(1,3-dioxoisoindolin-2-yl)benzenesulfonamide] gave a melting point of 224 to 226 °C. Besides, in the series with CVB3 Nancy [1], the EC50 turned out to be 744 ± 67.3 µM and the “SI (selectivity index, ratio CC50/IC50)” value was <1. This compound also registered a CC50 at 72 h in series [2] of 625 ± 57.5 µM.
For `NS(=O)(=O)c1ccc(NS(=O)(=O)c2ccc(N3C(=O)c4ccccc4C3=O)cc2)cc1` [Compound 2e, 4-(1,3-Dioxoisoindolin-2-yl)-N-(4-sulfamoylphenyl)benzenesulfonamide] the same measures were 261 to 263 °C, > 437 µM, <1 and 437 ± 35.1 µM.
As to `CC(=O)Nc1ccc(NS(=O)(=O)c2ccc(N3C(=O)c4ccccc4C3=O)cc2)cc1` [Compound 2f], the melting point lay within 220 to 222 °C. Moreover, in the series with CVB3 Nancy [1], the EC50 was > 689 µM and the “SI (selectivity index, ratio CC50/IC50)” value is <1. This compound came in with a CC50 at 72 h in series [2] of 181 ± 19.2 µM.
For `O=C(O)C1CCN(S(=O)(=O)c2ccc(N3C(=O)c4ccccc4C3=O)cc2)CC1` [Compound 2g, 1-((4-(1,3-Dioxoisoindolin-2-yl)phenyl)sulfonyl)piperidine-4-carboxylic acid] the same measures were 207 to 210 °C, 12.3 ± 2.07 µM, >18.5 and > 228 µM.
In turn, `NC(=O)C1CCN(S(=O)(=O)c2ccc(N3C(=O)c4ccccc4C3=O)cc2)CC1` [Compound 2h, 1-((4-(1,3-Dioxoisoindolin-2-yl)phenyl)sulfonyl)piperidine-4-carboxamide] came in with a melting point of 217 to 220 °C. For the same compound, in the series on CVB3 Nancy [1], the EC50 is > 726 µM and the “SI (selectivity index, ratio CC50/IC50)” value is >1. The CC50 at 72 h in series [2] is > 726 µM. In addition, the CC50 result with Vero cells was “exceeded the maximum concentration used in the assay”.
Consider `O=C(O)CCCNS(=O)(=O)c1ccc(N2C(=O)c3ccccc3C2=O)cc1` [Compound 2i, 4-(4-(1,3-Dioxoisoindolin-2-yl)phenylsulfonamido)butanoic acid], for which, in the series on CVB3 Nancy [1], the EC50 is < 28.6 µM and the “SI (selectivity index, ratio CC50/IC50)” value is >10. For the same compound, in series [2], the CC50 at 24 h stood at 1260 ± 110 µM and it took 283 ± 31.1 µM to reach half-maximal cytotoxicity (CC50 at 72 h). In addition, in series [3], the IC50 was 37.9 ± 1.08 µM and the “SI (selectivity index, ratio CC50/IC50)” value was found to be 33.
Turning to `CCOC(=O)c1ccc(NS(=O)(=O)c2ccc(NC(=O)c3ccccc3C(=O)O)cc2)cc1` [Compound 3, 2-((4-(N-(4-(Ethoxycarbonyl)phenyl)sulfamoyl)phenyl)carbamoyl)benzoic acid], in the series on CVB3 Nancy [1], the EC50 was > 427 µM and the “SI (selectivity index, ratio CC50/IC50)” value is >1. Further, in series [2], the CC50 at 72 h was > 640 µM.
In the case of `O=C(O)c1ccc(NS(=O)(=O)c2ccc(N3C(=O)CCC3=O)cc2)cc1` [Compound 7a, 4-(4-(2,5-Dioxopyrrolidin-1-yl)phenylsulfonamido)benzoic acid], the melting point is 243 to 245 °C (dec.). For the same compound, in the series on CVB3 Nancy [1], the EC50 was < 9.88 µM and the “SI (selectivity index, ratio CC50/IC50)” value is on record as >34.8. Further, in series [2], the CC50 at 24 h was > 1340 µM and half-maximal cytotoxicity (CC50 at 72 h) was put at 345 ± 32.2 µM. Besides, in series [3], the IC50 was 4.22 ± 0.35 µM and the “SI (selectivity index, ratio CC50/IC50)” value is listed as >316. Further, the “Temperature to which infectivity of CVB3 was preserved” value with CVB3 Nancy [4] (concentrations greatly exceeding IC50) stood at 52.4 °C. In addition, the “Effect on heat inactivation of CVB3 (capsid stabilization)” value with CVB3 Nancy [4] (versus virus control) is given as “heat inactivation of CVB3 changed to higher temperatures”.
Turning to `O=C(O)c1ccc(NS(=O)(=O)c2ccc(N3C(=O)C4CC=CCC4C3=O)cc2)cc1` (stereo not drawn) [Compound 7b, 4-(4-(1,3-Dioxo-3a,4,7,7a-tetrahydro-1H-isoindol-2(3H)-yl)phenylsulfonamido)benzoic acid], the melting point fell in the range of 250 to 252 °C. In the series with CVB3 Nancy [1], the EC50 was < 8.67 µM and the “SI (selectivity index, ratio CC50/IC50)” value is on record as >54.6. In series [2], this compound showed a CC50 at 24 h of 933 ± 75.1 µM and a CC50 at 72 h of 474 ± 38.5 µM. For the same compound, the IC50 in series [3] amounted to 11.1 ± 0.16 µM.
Turning to `O=C(O)c1ccc(NS(=O)(=O)c2ccc(N3C(=O)C4C5CCC(C5)C4C3=O)cc2)cc1` (stereo not drawn) [Compound 7d, 4-(4-(1,3-Dioxohexahydro-1H-4,7-methanoisoindol-2(3H)-yl)phenylsulfonamido)benzoic acid], the melting point fell in the range of 265 to 267 °C. Besides, in the series on CVB3 Nancy [1], the EC50 is < 8.39 µM and the “SI (selectivity index, ratio CC50/IC50)” value is >81.1. Moreover, in series [2], the CC50 at 24 h is > 1140 µM and the CC50 at 72 h was determined as 681 ± 54.8 µM. Also, in series [3], the IC50 amounted to 19.6 ± 0.49 µM and the “SI (selectivity index, ratio CC50/IC50)” value is listed as >58.
`O=C(O)c1ccc(NS(=O)(=O)c2ccc(N3C(=O)c4cccc5cccc(c45)C3=O)cc2)cc1` [Compound 7e, 4-(4-(1,3-Dioxo-1H-benzo[de]isoquinolin-2(3H)-yl)phenylsulfonamido)benzoic acid] showed a melting point of 284 to 286 °C. Also, in the series with CVB3 Nancy [1], the EC50 is > 635 µM and the “SI (selectivity index, ratio CC50/IC50)” value is listed as <1. This compound also registered a CC50 at 72 h in series [2] of 531 ± 48.4 µM.
